# Measured values published in ChEMBL document CHEMBL4184308, “Melanogenesis inhibitory pregnane glycosides from Cynanchum atratum” (Bioorg Med Chem Lett, 2018).
# Activity calls are given as the source filed them. The rule behind the calls is not given here.
# Tests used:
# B16 = assay: Inhibition of melanin production in alpha-MSH-stimulated mouse B16 cells incubated for 24 hrs followed by alpha-MSH stimulation for 72 hrs in presence of compound; format: functional, cell-based
# [1] = target: T1, Tyrosinase (Mus musculus) (UniProt P11344); assay: Inhibition of mouse tyrosinase
# T1 sequence (whole entry): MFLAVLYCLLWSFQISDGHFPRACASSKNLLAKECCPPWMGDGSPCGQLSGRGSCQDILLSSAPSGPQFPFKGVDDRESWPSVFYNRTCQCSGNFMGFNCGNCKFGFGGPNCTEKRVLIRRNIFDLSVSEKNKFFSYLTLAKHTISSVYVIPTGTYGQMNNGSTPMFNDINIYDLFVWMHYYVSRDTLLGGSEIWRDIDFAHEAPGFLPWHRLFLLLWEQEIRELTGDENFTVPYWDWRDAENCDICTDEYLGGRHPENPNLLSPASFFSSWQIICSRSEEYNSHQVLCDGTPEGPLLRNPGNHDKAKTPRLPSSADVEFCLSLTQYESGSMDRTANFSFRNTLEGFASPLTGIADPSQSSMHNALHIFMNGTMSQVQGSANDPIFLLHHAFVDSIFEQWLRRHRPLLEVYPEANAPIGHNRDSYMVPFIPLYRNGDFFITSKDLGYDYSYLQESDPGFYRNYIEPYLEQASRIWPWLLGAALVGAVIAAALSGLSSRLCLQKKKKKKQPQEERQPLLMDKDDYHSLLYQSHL
# [2] = target: T1, Tyrosinase (Mus musculus); assay: Inhibition of mouse B16 cells derived tyrosinase at 30 uM
IC50 (B16) [µM],inhibition [1],inhibition [2],SMILES,inhibition (B16)
33,,,CO[C@H]1C[C@H](O[C@@H]2[C@H](C)O[C@@H](O[C@H]3[C@@H](OC)C[C@H](O[C@@H]4CC5=CC[C@H]6C(=O)[C@@](C)(C7=CC(=O)O[C@@H]7C)CC[C@@H]6[C@@]5(C)C[C@H]4O)O[C@@H]3C)C[C@@H]2OC)O[C@H](C)[C@H]1O,Dose-dependent effect
> 50,,,CO[C@@H]1[C@@H](O)[C@H](O[C@H]2CC[C@@]3(C)C(=CC[C@H]4C(=O)O[C@@H]5CO[C@]6(C)OC(=O)/C(=C/C[C@@H]43)[C@H]56)C2)O[C@H](C)[C@H]1O,
,Active,,CC(=O)c1cc(O)ccc1O,
41,,,CO[C@H]1O[C@@]2(C)OC[C@H]3OC(=O)[C@@H]4CC=C5C[C@@H](O[C@@H]6O[C@H](C)[C@@H](O)[C@H](OC)[C@H]6O)CC[C@]5(C)[C@H]4C/C=C/1[C@H]32,
,Active,,CC(=O)c1c(O)cccc1O,
21,,inactive,CO[C@H]1C[C@H](O[C@@H]2[C@H](C)O[C@@H](O[C@H]3[C@@H](OC)C[C@H](O[C@@H]4CC5=CC[C@H]6C(=O)[C@@](C)(C7=CC(=O)O[C@H]7C)CC[C@@H]6[C@@]5(C)C[C@H]4O)O[C@@H]3C)C[C@@H]2OC)O[C@H](C)[C@H]1O,Dose-dependent effect
4,,,CO[C@H]1[C@@H](O)[C@H](O[C@H]2CC[C@@]3(C)C(=CC[C@H]4C(=O)O[C@@H]5CO[C@]6(C)OC=C(CC[C@@H]43)[C@H]56)C2)O[C@H](C)[C@H]1O[C@H]1C[C@H](OC)[C@H](O[C@H]2C[C@H](OC)[C@H](O)[C@@H](C)O2)[C@H](C)O1,Dose-dependent effect
> 50,,,CO[C@H]1C[C@H](O[C@@H]2CC3=CC[C@H]4C(=O)[C@@](C)(C5=CC(=O)O[C@H]5C)CC[C@@H]4[C@@]3(C)C[C@H]2O)O[C@H](C)[C@H]1O,
19,,,CO[C@H]1[C@@H](O)[C@H](O[C@H]2CC[C@@]3(C)C(=CC[C@H]4C(=O)O[C@@H]5CO[C@]6(C)OC=C(CC[C@@H]43)[C@H]56)C2)O[C@H](C)[C@H]1O[C@H]1C[C@H](OC)[C@H](O)[C@H](C)O1,Dose-dependent effect
